Values of other authors as cited in patent publication US8697115B2, “Method of improving antioxidant status of an infant” (Abbott Laboratories, priority 2002, dated 2014).

What was measured:
[1] = Food Chemicals Codex effective Jul. 1, 1996
[2] = α-tocopherol equivalents; from Vitamin E in Health and Disease, 1993
[3] = capsule with both forms for 5 days prior to giving birth
[4] = adults

## Cc1c(C)c2c(c(C)c1OC(=O)CCC(=O)O)CCC(C)(CCCC(C)CCCC(C)CCCC(C)C)O2 (stereo not drawn) [d,l-α-tocopherol acid succinate]
[1]
  Activity (IU/mg): 0.89 IU/mg

## CC(C)=CCC/C(C)=C/CC/C(C)=C/CC[C@]1(C)CCc2c(C)c(O)c(C)c(C)c2O1 [RRR-α-tocotrienol]
[2]
  Activity as α-TE (mg/mg compound): 0.3 mg/mg compound

## Cc1c(C)c2c(c(C)c1O)CCC(C)(CCCC(C)CCCC(C)CCCC(C)C)O2 (racemic) [d,l-α-tocopherol, 2DL,4′DL,8′DL-α-tocopherol]
[1]
  Activity (IU/mg): 1.1 IU/mg

## Cc1c(C)c2c(c(C)c1O)CC[C@@](C)(CCC[C@H](C)CCC[C@H](C)CCCC(C)C)O2 [RRR-α-tocopherol, 2R,4′R,8′R-α-tocopherol]
[2]
  Activity as α-TE (mg/mg compound): 1.0 mg/mg compound
[3]
  amount in placental cord blood relative to synthetic vitamin E: ~3.5 times
[3]; in words
  concentration in the mother's own blood at delivery relative to synthetic vitamin E: nearly twice
[4]
  enrichment in VLDL secreted by the liver over all-rac-α-tocopherol: 4 fold
[1]
  Activity (IU/mg): 1.49 IU/mg

## CC(C)=CCC/C(C)=C/CC/C(C)=C/CC[C@]1(C)CCc2c(C)c(O)cc(C)c2O1 [RRR-β-tocotrienol]
[2]
  Activity as α-TE (mg/mg compound): 0.05 mg/mg compound

## Cc1c(C)c2c(c(C)c1OC(=O)CCC(=O)O)CC[C@@](C)(CCC[C@H](C)CCC[C@H](C)CCCC(C)C)O2 [d-α-tocopherol acid succinate]
[1]
  Activity (IU/mg): 1.21 IU/mg

## Cc1cc(O)c(C)c2c1O[C@](C)(CCC[C@H](C)CCC[C@H](C)CCCC(C)C)CC2 [RRR-β-tocopherol]
[2]
  Activity as α-TE (mg/mg compound): 0.5 mg/mg compound

## Cc1cc(O)cc2c1O[C@](C)(CCC[C@H](C)CCC[C@H](C)CCCC(C)C)CC2 [RRR-δ-tocopherol]
[2]
  Activity as α-TE (mg/mg compound): 0.03 mg/mg compound

## CC(=O)Oc1c(C)c(C)c2c(c1C)CC[C@@](C)(CCC[C@H](C)CCC[C@H](C)CCCC(C)C)O2 [d-α-tocopherol acetate]
[4]; in words
  preferential utilization compared to all-rac-α-tocopheryl acetate: about twice
[1]
  Activity (IU/mg): 1.36 IU/mg

## CC(=O)Oc1c(C)c(C)c2c(c1C)CCC(C)(CCCC(C)CCCC(C)CCCC(C)C)O2 (stereo not drawn) [d,l-α-tocopherol acetate]
[2]
  Activity as α-TE (mg/mg compound): 0.74 mg/mg compound
[1]
  Activity (IU/mg): 1.0 IU/mg

## Cc1c(O)cc2c(c1C)O[C@](C)(CCC[C@H](C)CCC[C@H](C)CCCC(C)C)CC2 [RRR-γ-tocopherol]
[2]
  Activity as α-TE (mg/mg compound): 0.1 mg/mg compound
